Test results reported in patent publication US12246010B2, “Formulations of tegavivint and related compounds” (Iterion Therapeutics, Inc., priority 2018, dated 2025).
“And” between values parts separate entries of the source, which are not always exact repeats. Equal entries are not always repeated.

Experiment: Dose-escalating intravenous infusion study in male Beagle dogs (plasma PK)
Assay type: in vivo
Details: dog
Protocol: • Study Animals: Four male non-naïve Beagle dogs were released by Xenometrics for study use on Apr. 20, 2017. The animals were fed Harlan Teklad® Global 25% Protein Certified Dog Diet 2025C ad libitum throughout the study (except for brief periods during in-life procedures when it was • Dosing: Animals were dosed via intravenous (IV) infusion (via jugular vein) for 4 hours (h) [±5 minutes (min)].
[…] All blood samples were collected within 10 minutes of the target time and processed per protocol. Bioanalytical results indicated tegavivint was present in all plasma samples.
The pharmacokinetic parameters were determined for BC-2059 following the final 15 mg/kg infusion of the drug over 4 h.

[1] = 15 mg/kg 4 h IV infusion, individual animals, 15 mg/kg

Plasma BC-2059, 4 h [1]: 1310 ng/mL and 1320 ng/mL and 1150 ng/mL
Plasma BC-2059, 12 h [1]: 916.0 ng/mL and 1050 ng/mL and 777 ng/mL
Plasma BC-2059, 24 h [1]: 1120 ng/mL (2×) and 1070 ng/mL
Plasma BC-2059, 36 h [1]: 834 ng/mL and 931 ng/mL and 708 ng/mL
Plasma BC-2059, 48 h [1]: 663 ng/mL and 656 ng/mL and 647 ng/mL
Plasma BC-2059, 72 h [1]: 511 ng/mL and 480 ng/mL and 524 ng/mL
Plasma BC-2059, 96 h [1]: 360 ng/mL and 310 ng/mL and 364 ng/mL
Plasma BC-2059, 120 h [1]: 321 ng/mL and 262 ng/mL and 281 ng/mL
concentration at 4 h (male, Beagle, plasma, iv, 15 mg/kg, 15 mg/kg 4 h IV infusion, individual animals, read-out: Plasma BC-2059, 4 h): 1600 ng/mL
concentration at 12 h (male, Beagle, plasma, iv, 15 mg/kg, 15 mg/kg 4 h IV infusion, individual animals, read-out: Plasma BC-2059, 12 h): 784 ng/mL
concentration at 24 h (male, Beagle, plasma, iv, 15 mg/kg, 15 mg/kg 4 h IV infusion, individual animals, read-out: Plasma BC-2059, 24 h): 723 ng/mL
concentration at 36 h (male, Beagle, plasma, iv, 15 mg/kg, 15 mg/kg 4 h IV infusion, individual animals, read-out: Plasma BC-2059, 36 h): 674 ng/mL
concentration at 48 h (male, Beagle, plasma, iv, 15 mg/kg, 15 mg/kg 4 h IV infusion, individual animals, read-out: Plasma BC-2059, 48 h): 664 ng/mL
concentration at 72 h (male, Beagle, plasma, iv, 15 mg/kg, 15 mg/kg 4 h IV infusion, individual animals, read-out: Plasma BC-2059, 72 h): 393 ng/mL
concentration at 96 h (male, Beagle, plasma, iv, 15 mg/kg, 15 mg/kg 4 h IV infusion, individual animals, read-out: Plasma BC-2059, 96 h): 277 ng/mL
concentration at 120 h (male, Beagle, plasma, iv, 15 mg/kg, 15 mg/kg 4 h IV infusion, individual animals, read-out: Plasma BC-2059, 120 h): 228 ng/mL
Cmax (male, Beagle, plasma, 15 mg/kg IV over 4 h, mean, n = 4 males): 1340 ± 187 ng/mL
AUC(0-t) (male, Beagle, plasma, 15 mg/kg IV over 4 h, mean, n = 4 males, read-out: AUC0-120 h): 73500 ng·h/mL
half-life (male, Beagle, plasma, 15 mg/kg IV over 4 h, mean, n = 4 males, read-out: T½ (converted)): 53 h
Compound: C[C@@H]1C[C@H](C)CN(S(=O)(=O)c2ccc3c(c2)C(=NO)c2cc(S(=O)(=O)N4C[C@H](C)C[C@H](C)C4)ccc2C3=NO)C1 [BC2059, tegavivint]
Plasma BC-2059, Predose (prior to Dose 6 (15 mg/kg 4 h IV infusion), individual animals, 15 mg/kg): 257 ng/mL and 404 ng/mL and 309 ng/mL and 284 ng/mL
